The record followed here is ChEMBL document CHEMBL5653631, “A Potent and Selective ULK1 Inhibitor Suppresses Autophagy and Sensitizes Cancer Cells to Nutrient Stress” (iScience, 2018).

SMILES strings stand for the structures.

Assay [1] has as its target T1, Myotonin-protein kinase (Homo sapiens) (UniProt Q09013).
T1 sequence (whole entry): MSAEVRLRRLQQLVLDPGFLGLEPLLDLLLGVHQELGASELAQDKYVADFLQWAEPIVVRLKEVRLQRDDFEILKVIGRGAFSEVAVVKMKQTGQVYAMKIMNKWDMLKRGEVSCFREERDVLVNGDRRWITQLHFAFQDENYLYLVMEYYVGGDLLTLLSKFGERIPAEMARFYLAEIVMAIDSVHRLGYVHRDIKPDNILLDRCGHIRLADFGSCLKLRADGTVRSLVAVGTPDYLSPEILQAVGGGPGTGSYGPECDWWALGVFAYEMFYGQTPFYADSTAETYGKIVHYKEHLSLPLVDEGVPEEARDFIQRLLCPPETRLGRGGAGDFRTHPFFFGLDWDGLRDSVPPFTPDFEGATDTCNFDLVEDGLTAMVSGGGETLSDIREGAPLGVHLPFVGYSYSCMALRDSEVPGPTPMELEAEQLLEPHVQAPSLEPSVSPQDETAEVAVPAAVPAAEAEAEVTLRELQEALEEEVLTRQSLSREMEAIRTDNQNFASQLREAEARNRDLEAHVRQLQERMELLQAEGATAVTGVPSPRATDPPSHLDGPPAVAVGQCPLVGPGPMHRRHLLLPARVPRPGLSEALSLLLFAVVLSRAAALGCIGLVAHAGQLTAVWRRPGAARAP
Kind of assay: Inhibition of human recombinant DMPK1 at 40 nM related to control ULK1.

Assay [2] concerns the target T2, Discoidin domain-containing receptor 2 (Homo sapiens) (UniProt Q16832).
T2 sequence (whole entry): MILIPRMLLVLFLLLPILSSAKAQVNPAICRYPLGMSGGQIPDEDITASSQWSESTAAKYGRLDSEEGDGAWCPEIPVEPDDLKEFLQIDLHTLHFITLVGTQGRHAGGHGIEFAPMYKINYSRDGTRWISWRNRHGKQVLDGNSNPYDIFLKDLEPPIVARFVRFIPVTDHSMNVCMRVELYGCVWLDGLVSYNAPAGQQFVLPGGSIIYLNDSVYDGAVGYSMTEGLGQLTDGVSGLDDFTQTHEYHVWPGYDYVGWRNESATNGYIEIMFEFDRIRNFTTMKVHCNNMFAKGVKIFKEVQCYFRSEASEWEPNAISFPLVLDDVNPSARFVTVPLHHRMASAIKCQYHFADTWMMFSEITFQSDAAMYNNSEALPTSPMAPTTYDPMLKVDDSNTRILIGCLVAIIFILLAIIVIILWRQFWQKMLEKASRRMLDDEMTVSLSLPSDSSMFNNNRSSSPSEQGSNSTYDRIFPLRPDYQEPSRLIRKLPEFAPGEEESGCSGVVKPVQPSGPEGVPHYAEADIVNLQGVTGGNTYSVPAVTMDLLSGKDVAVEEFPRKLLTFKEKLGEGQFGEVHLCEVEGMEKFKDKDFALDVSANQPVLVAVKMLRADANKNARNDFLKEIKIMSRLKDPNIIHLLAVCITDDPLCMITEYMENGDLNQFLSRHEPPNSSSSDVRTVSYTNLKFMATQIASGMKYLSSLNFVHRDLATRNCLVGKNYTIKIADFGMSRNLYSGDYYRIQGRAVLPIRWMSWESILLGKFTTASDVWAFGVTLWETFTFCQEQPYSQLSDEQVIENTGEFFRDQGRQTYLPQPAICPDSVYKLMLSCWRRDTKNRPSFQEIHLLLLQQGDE
Kind of assay: Inhibition of human recombinant DDR2 at 500 nM in presence of ATP by radiometric assay relative to control.

Assay [3] has as its target [Pyruvate dehydrogenase (acetyl-transferring)] kinase isozyme 4, mitochondrial (Homo sapiens) (UniProt Q16654). The experiment in a line: Inhibition of human recombinant PDHK4 at 500 nM in presence of ATP by radiometric assay relative to control.
The target in assay [4] is T3, Tyrosine-protein kinase Mer (Homo sapiens) (UniProt Q12866).
T3 sequence (whole entry): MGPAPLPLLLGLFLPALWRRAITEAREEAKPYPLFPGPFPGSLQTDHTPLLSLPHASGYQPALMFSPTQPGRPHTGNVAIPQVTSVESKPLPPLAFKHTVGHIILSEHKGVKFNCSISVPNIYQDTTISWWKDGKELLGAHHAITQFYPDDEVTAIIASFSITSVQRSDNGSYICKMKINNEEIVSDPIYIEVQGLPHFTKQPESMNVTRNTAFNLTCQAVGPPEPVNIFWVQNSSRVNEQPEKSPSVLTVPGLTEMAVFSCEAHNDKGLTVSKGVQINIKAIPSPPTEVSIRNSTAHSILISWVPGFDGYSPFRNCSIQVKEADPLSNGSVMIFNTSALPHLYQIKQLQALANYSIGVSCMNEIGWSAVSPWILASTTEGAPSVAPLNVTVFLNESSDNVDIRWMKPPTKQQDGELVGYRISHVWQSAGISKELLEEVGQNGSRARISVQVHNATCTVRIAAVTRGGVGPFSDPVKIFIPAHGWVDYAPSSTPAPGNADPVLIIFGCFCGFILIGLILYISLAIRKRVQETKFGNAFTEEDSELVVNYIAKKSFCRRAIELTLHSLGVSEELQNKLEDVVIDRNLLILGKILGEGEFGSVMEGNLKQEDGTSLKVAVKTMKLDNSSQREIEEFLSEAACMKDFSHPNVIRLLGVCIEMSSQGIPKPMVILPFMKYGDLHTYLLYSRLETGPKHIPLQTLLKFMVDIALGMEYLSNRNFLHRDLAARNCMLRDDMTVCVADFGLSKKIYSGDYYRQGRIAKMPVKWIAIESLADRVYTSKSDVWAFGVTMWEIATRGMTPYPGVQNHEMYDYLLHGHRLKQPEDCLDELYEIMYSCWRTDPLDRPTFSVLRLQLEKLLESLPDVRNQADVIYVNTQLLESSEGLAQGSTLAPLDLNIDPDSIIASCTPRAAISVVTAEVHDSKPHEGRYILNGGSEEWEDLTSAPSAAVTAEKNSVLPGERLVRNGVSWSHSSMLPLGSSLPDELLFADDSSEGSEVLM
The experiment in a line: Inhibition of human recombinant MER at 500 nM in presence of ATP by radiometric assay relative to control.

Chain of [Pyruvate dehydrogenase (acetyl-transferring)] kinase isozyme 4, mitochondrial (Homo sapiens) (Q16654 whole entry, looked up): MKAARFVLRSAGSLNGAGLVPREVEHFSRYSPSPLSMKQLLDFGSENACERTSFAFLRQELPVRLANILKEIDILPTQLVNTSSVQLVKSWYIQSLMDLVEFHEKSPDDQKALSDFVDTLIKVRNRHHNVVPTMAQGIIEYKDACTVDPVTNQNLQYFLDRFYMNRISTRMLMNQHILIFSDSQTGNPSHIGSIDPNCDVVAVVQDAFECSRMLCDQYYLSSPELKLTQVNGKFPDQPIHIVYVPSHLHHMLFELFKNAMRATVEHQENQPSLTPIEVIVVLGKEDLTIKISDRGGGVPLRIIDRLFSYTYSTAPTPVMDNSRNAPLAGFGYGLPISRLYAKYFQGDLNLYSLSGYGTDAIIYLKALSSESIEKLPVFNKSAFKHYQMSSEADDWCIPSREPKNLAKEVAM

As for `O=C(N[C@@H](C1CC1)C(F)(F)F)c1cc(-c2cnn3cc(-c4ccc(F)cc4)cnc23)cs1`, the fold change (FC) in assay [1] is 0.07.
On to `CNC(=O)c1ccccc1Oc1nc(Nc2cc(OC)c(OC)c(OC)c2)ncc1Br`, for which the inhibition came out at 0% in assay [2], 5% in assay [3] and 9% in assay [4].

As usually defined, the inhibition is how much of the control response was suppressed.
